The assay is filed under the species Rattus norvegicus. Nature of the assay: Inhibition of rat recombinant geranylgeranyltransferase type I expressed in Escherichia coli assessed as residual enzyme activity for geranylgeranylation of K-Ras4B at 50 uM incubated for 30 mins in presence of [3H]GGPP by scintillation counting assay relative to control.
For `COc1cccc([C@@H]2CC=C(C(=O)O)[C@H](c3cccc(C)c3)N2S(=O)(=O)c2ccc(C)cc2)c1`, the Activity was 98.6%. Take `CCCCS[C@@H]1C[C@@H](c2ccc(OC)cc2)N(S(=O)(=O)c2ccccc2)C[C@H]1C(=O)O`: the Activity is 83.1%. The value for `COc1ccc(S[C@@H]2C[C@@H](c3ccccc3)N(S(=O)(=O)c3ccc(C)cc3)C[C@H]2C(=O)O)cc1` was 99.1%; that for `COc1cccc([C@@H]2CC=C(C(=O)O)[C@H](c3ccc(Cl)cc3)N2S(=O)(=O)c2ccc(C)cc2)c1` was 54.1%; that for `Cc1ccc([C@@H]2CC=C(C(=O)O)[C@H](c3cccc(Cl)c3)N2S(C)(=O)=O)cc1` was 64.4%. In the case of `COC(=O)c1ccccc1S(=O)(=O)N1[C@@H](c2ccc(Cl)cc2)C(C(=O)O)=CC[C@H]1c1ccc(C)cc1` it was 81.4%; in that of `COc1cc([C@@H]2CC=C(C(C)=O)CN2S(=O)(=O)c2ccc(C)cc2)cc(OC)c1OC`, 92.3%. The value for `Cc1ccc([C@@H]2CC=C(C(=O)O)[C@H](c3cccc(Br)c3)N2S(=O)(=O)c2ccc(C)cc2)cc1` was 75.6%.

In the case of `CCCCCCS[C@@H]1C[C@@H](c2ccc(OCC)cc2)N(S(=O)(=O)c2ccc(C)cc2)C[C@H]1C(=O)O`, the Activity amounted to 67.6%. The value for `CCCS[C@@H]1C[C@@H](c2ccc(OC)c(OC)c2)N(S(=O)(=O)c2ccc(C)cc2)C[C@H]1C(=O)O` was 91.4%; that for `Cc1ccc([C@@H]2CC=C(C(=O)O)[C@H](c3ccc(F)cc3)N2S(=O)(=O)c2ccccc2)cc1` was 68.1%; that for `CCCCS[C@@H]1C[C@@H](c2ccc(C)cc2)N(S(C)(=O)=O)C[C@H]1C(=O)O` was 104%. In the case of `CCS[C@@H]1C[C@@H](c2ccc(OC)cc2)N(S(=O)(=O)c2ccccc2)C[C@H]1C(=O)O` it was 89.9%; in that of `Cc1ccc(S(=O)(=O)N2C[C@@H](C(=O)O)[C@H](SCC(C)C)C[C@H]2c2cccc(Cl)c2)cc1`, 79.7%; in that of `Cc1ccc([C@H]2C(C(=O)O)=CC[C@@H](c3ccc(C)cc3)N2S(=O)(=O)c2ccccc2)cc1`, 99.8%. On to `CCCCCS[C@@H]1C[C@@H](c2ccccc2)N(S(=O)(=O)c2ccc(C)cc2)C[C@H]1C(=O)O`, for which the Activity was 77.2%. The value for `CCS[C@@H]1C[C@@H](c2cccc(Br)c2)N(S(=O)(=O)c2ccc(C)cc2)C[C@H]1C(=O)O` was 82.7%; that for `CCCS[C@@H]1C[C@@H](c2ccc(CC)cc2)N(S(=O)(=O)c2ccc(C)cc2)C[C@H]1C(=O)O` was 69%; that for `Cc1ccccc1S(=O)(=O)N1[C@@H](c2ccc(Br)cc2)C(C(=O)O)=CC[C@H]1c1ccc(Cl)cc1` was 86.6%. The value for `Cc1ccc(S(=O)(=O)N2[C@@H](c3cccc(Cl)c3)C(C(=O)O)=CC[C@H]2c2ccccc2)cc1` was 71.3%; that for `Cc1ccc([C@@H]2CC=C(C(=O)O)[C@H](c3ccc(F)cc3)N2S(=O)(=O)c2ccc(Cl)cc2)cc1` was 60%.

For the molecule `Cc1ccc(S(=O)(=O)N2[C@@H](c3cccc(F)c3)C(C(=O)O)=CC[C@H]2c2cccs2)cc1`, the Activity worked out at 81.8%. In the case of `COc1ccc([C@@H]2CC=C(C(=O)O)[C@H](c3cccc(C)c3)N2S(=O)(=O)c2ccccc2)cc1` it was 72.6%; in that of `COc1ccc([C@@H]2CC=C(C(=O)O)[C@H](c3cccc(Br)c3)N2S(=O)(=O)c2ccccc2C)cc1`, 51.9%. In the case of `Cc1ccc(S(=O)(=O)N2[C@@H](c3cccc(C)c3)C(C(=O)O)=CC[C@H]2c2cccc(Cl)c2)cc1` it was 46.9%; in that of `Cc1ccc(S(=O)(=O)N2[C@@H](c3cccc(C)c3)C(C(=O)O)=CC[C@H]2c2ccc3c(c2)OCO3)cc1`, 70.6%; in that of `Cc1ccc(S(=O)(=O)N2[C@@H](c3ccc(F)cc3)C(C(=O)O)=CC[C@H]2c2cccc(Br)c2)cc1`, 62.7%. The value for `CCCCCS[C@@H]1C[C@@H](c2ccccc2F)N(S(=O)(=O)c2ccc(C)cc2)C[C@H]1C(=O)O` was 61.4%.

The values are drawn from ChEMBL document CHEMBL4421722, “Inhibitors of protein prenyltransferases” (2013).
